Like-named read-outs stand apart in the source and are kept apart here.
Assay: PK after subcutaneous administration of solutions in rats
Format: in vivo, Wistar Han rat
Conditions: for Plasma concentration: 0 h
Description: Formulations containing the compound of Formula (Ia) were prepared as aqueous solutions or oral formulations and administered subcutaneously to rats, dogs, cynomolgus monkey, and/or rhesus monkey.
A solution of the compound of Formula (Ia) in 10% ethanol, 13% water, and 77% PEG 200 (400 mg/mL) was prepared. The solution was administered subcutaneously to dogs at a dose of 12 mg/kg and rats at a dose of 50 mg/kg and the pharmacokinetic (PK) profile was determined. […] In both species, plasma concentrations of the compound of Formula (Ia) were maintained above the target trough concentration of 20 nM (corresponding to an IQ of 5) for at least 84 days (12 weeks).
A solution of the free acid of the compound of Formula (Ia) in 15% water and 85% PEG 300 (300 mg/mL) was prepared. The solution was administered subcutaneously to male Wistar Han rats at a dose level of 50 mg/kg and dose volume of 0.167 mL/kg and the pharmacokinetic (PK) profile was determined.
A 300 mg/ml solution of a compound of Formula (Ia) having 9.8 w/w % water, 65.0 w/w % PEG 300, and 25.2 w/w % of the compound of Formula (Ia) was prepared. The solution was administered subcutaneously to rats at a dose of 50 mg/kg and to dogs at a dose of 12 mg/kg and the pharmacokinetic (PK) profile was determined. […] In the rat, plasma concentrations of the compound of Formula (Ia) were maintained above the target trough concentration of 20 nM for at least 168 days (24 weeks). In the dog, plasma concentrations of the compound of Formula (Ia) were maintained above the target trough concentration of 20 nM for at least 84 days (12 weeks).
(§1) A 150 mg/ml solution of a compound of Formula (Ia) having 27.92 w/w % water, 58.04 w/w % PEG 300, 13.47 w/w % of a compound of Formula (Ia), and 1.1 w/w % NaOH was prepared. The solution was administered subcutaneously to rats at a dose of 50 mg/kg and to dogs at a dose of 12 mg/kg and the pharmacokinetic (PK) profile was determined. […] In the rat, plasma concentrations of the compound of Formula (Ia) were maintained above the target trough concentration of 20 nM for at least 126 days (18 weeks). In the dog, plasma concentrations of the compound of Formula (Ia) were maintained above the target trough concentration of 20 nM for at least 56 days (8 weeks).
as §1, with “300” for “150”, “23.2” for “27.92”, “50.0” for “58.04”, “25.7” for “13.47”
A 50 mg/ml solution of a compound of Formula (Ia) having 30.07 w/w % water, 64.40 w/w % PEG 300, 4.68 w/w % of a sodium salt of the compound of Formula (Ia), and 0.85 w/w % poloxamer 188 was prepared. The solution was administered subcutaneously to rats at a dose of 50 mg/kg and to dogs at a dose of 6 mg/kg and the pharmacokinetic (PK) profile was determined. […] In the rat, plasma concentrations of the compound of Formula (Ia) were maintained above the target trough concentration of 20 nM for at least 28 days (4 weeks). In the dog, plasma concentrations of the compound of Formula (Ia) were maintained above the target trough concentration of 20 nM for at least 14 days (2 weeks).
A 75 mg/ml solution of a compound of Formula (Ia) having 29.21 w/w % water, 62.55 w/w % PEG 300, 6.97 w/w % of a sodium salt of the compound of Formula (Ia), and 1.68 w/w % poloxamer 188 was prepared. The solution was administered subcutaneously to rats at a dose of 50 mg/kg and to dogs at a dose of 6 mg/kg and the pharmacokinetic (PK) profile was determined. […]

[1] = male, Wistar Han, rat, plasma, sc, 50 mg/kg, rat #3, SC 50 mg/kg, 300 mg/mL in 15% water/85% PEG 300
[2] = male, Wistar Han, rat, plasma, sc, 50 mg/kg, rat mean, n=3, SC 50 mg/kg, 300 mg/mL in 15% water/85% PEG 300
[3] = rat, SC 50 mg/kg, 75 mg/mL solution (w/w %: 29.21 water, 62.55 PEG 300, 6.97 sodium salt of Formula (Ia), 1.68 poloxamer 188), mean ± SD, n=3
[4] = rat, SC 50 mg/kg, 125 mg/mL solution (w/w %: 27.51 water, 58.92 PEG 300, 11.48 sodium salt of Formula (Ia), 2.09 poloxamer 188), mean ± SD, n=3
[5] = rat, SC 50 mg/kg, 150 mg/mL solution (w/w %: 26.6 water, 56.97 PEG 300, 13.39 Formula (Ia), 0.57 NaOH, 2.49 poloxamer 188), mean ± SD, n=3
[6] = rat, SC 50 mg/kg, 300 mg/mL solution (w/w %: 9.8 water, 65.0 PEG 300, 25.2 Formula (Ia)), mean ± SD, n=3
[7] = rat, SC 50 mg/kg, 300 mg/mL solution (w/w %: 21.97 water, 47.05 PEG 300, 25.21 Formula (Ia), 1.08 NaOH, 4.69 poloxamer 188), mean ± SD, n=3

CC(C)(C#Cc1ccc(-c2ccc(Cl)c3c(NS(C)(=O)=O)nn(CC(F)(F)F)c23)c([C@H](Cc2cc(F)cc(F)c2)NC(=O)Cn2nc(C(F)(F)F)c3c2C(F)(F)[C@@H]2C[C@H]32)n1)S(C)(=O)=O [Formula (Ia), N—((S)-1-(3-(4-chloro-3-(methylsulfonamido)-1-(2,2,2-trifluoroethyl)-1H-indazol-7-yl)-6-(3-methyl-3-(methylsulfonyl)but-1-yn-1-yl)pyridin-2-yl)-2-(3,5-difluorophenyl)ethyl)-2-((3bS,4aR)-5,5-difluoro-3-(trifluoromethyl)-3b,4,4a,5-tetrahydro-1H-cyclopropa[3,4]cyclopenta[1,2-c]pyrazol-1-yl)acetamide]
concentration at 96 h [1]: 85.2 nM
concentration at 168 h [1]: 137 nM
concentration at 336 h [1]: 284 nM
concentration at 504 h [1]: 281 nM
concentration at 672 h [1]: 304 nM
concentration at 840 h [1]: 302 nM
concentration at 1008 h [1]: 289 nM
concentration at 1344 h [1]: 278 nM
concentration at 1680 h [1]: 200 nM
concentration at 1 h (male, Wistar Han, rat, plasma, sc, 50 mg/kg, rat mean, n=3, 1 h, SC 50 mg/kg, 300 mg/mL in 15% water/85% PEG 300): 8.6 nM
concentration at 3 h (male, Wistar Han, rat, plasma, sc, 50 mg/kg, rat mean, n=3, 3 h, SC 50 mg/kg, 300 mg/mL in 15% water/85% PEG 300): 21.5 nM
concentration at 8 h (male, Wistar Han, rat, plasma, sc, 50 mg/kg, rat mean, n=3, 8 h, SC 50 mg/kg, 300 mg/mL in 15% water/85% PEG 300): 32.2 nM
concentration at 24 h (male, Wistar Han, rat, plasma, sc, 50 mg/kg, rat mean, n=3, 24 h, SC 50 mg/kg, 300 mg/mL in 15% water/85% PEG 300): 48.2 nM
concentration at 48 h (male, Wistar Han, rat, plasma, sc, 50 mg/kg, rat mean, n=3, 48 h, SC 50 mg/kg, 300 mg/mL in 15% water/85% PEG 300): 70.6 nM
concentration at 72 h (male, Wistar Han, rat, plasma, sc, 50 mg/kg, rat mean, n=3, 72 h, SC 50 mg/kg, 300 mg/mL in 15% water/85% PEG 300): 67.5 nM
concentration at 96 h [2]: 75.8 nM
concentration at 168 h [2]: 137 nM
concentration at 336 h [2]: 272 nM
concentration at 504 h [2]: 292 nM
concentration at 672 h [2]: 312 nM
concentration at 840 h [2]: 313 nM
concentration at 1008 h [2]: 282 nM
concentration at 1344 h [2]: 253 nM
concentration at 1680 h [2]: 189 nM
AUC(0-t) (male, Wistar Han, rat, plasma, sc, 50 mg/kg, rat, single SC 50 mg/kg, 300 mg/mL free acid in 85:15 w/w PEG 300:water, mean ± SD, n=3, read-out: AUC0-168h): 13.3 ± 0.3 µM·h
AUC(0-t) (male, Wistar Han, rat, plasma, sc, 50 mg/kg, rat, single SC 50 mg/kg, 300 mg/mL free acid in 85:15 w/w PEG 300:water, mean ± SD, n=3, read-out: AUC0-336h): 47.6 ± 1.2 µM·h
AUC(0-t) (male, Wistar Han, rat, plasma, sc, 50 mg/kg, rat, single SC 50 mg/kg, 300 mg/mL free acid in 85:15 w/w PEG 300:water, mean ± SD, n=3, read-out: AUC0-672h): 146 ± 6 µM·h
Plasma concentration (rat #1, SC 50 mg/kg, 300 mg/mL in 15% water/85% PEG 300): BLQ
Plasma concentration (rat #2, SC 50 mg/kg, 300 mg/mL in 15% water/85% PEG 300): BLQ
Plasma concentration (rat #3, SC 50 mg/kg, 300 mg/mL in 15% water/85% PEG 300): BLQ
Time plasma concentrations maintained above the target trough concentration of 20 nM (rat, SC 50 mg/kg, 50 mg/mL solution (w/w %: 30.07 water, 64.40 PEG 300, 4.68 sodium salt of Formula (Ia), 0.85 poloxamer 188)): at least 28 days
AUC0-28d (rat, SC 50 mg/kg, 50 mg/mL solution (w/w %: 30.07 water, 64.40 PEG 300, 4.68 sodium salt of Formula (Ia), 0.85 poloxamer 188), mean ± SD, n=3): 643 ± 75 µM·h
Time plasma concentrations maintained above the target trough concentration of 20 nM (rat, SC 50 mg/kg, 75 mg/mL solution (w/w %: 29.21 water, 62.55 PEG 300, 6.97 sodium salt of Formula (Ia), 1.68 poloxamer 188)): at least 42 days
AUC0-7d [3]: 241 ± 22 µM·h
AUC0-28d [3]: 690 ± 32 µM·h
Time plasma concentrations maintained above the target trough concentration of 20 nM (rat, SC 50 mg/kg, 100 mg/mL solution (w/w %: 28.36 water, 60.73 PEG 300, 9.23 sodium salt of Formula (Ia), 1.68 poloxamer 188)): at least 28 days
AUC0-28d (rat, SC 50 mg/kg, 100 mg/mL solution (w/w %: 28.36 water, 60.73 PEG 300, 9.23 sodium salt of Formula (Ia), 1.68 poloxamer 188), mean ± SD, n=3): 716 ± 62 µM·h
Time plasma concentrations maintained above the target trough concentration of 20 nM (rat, SC 50 mg/kg, 125 mg/mL solution (w/w %: 27.51 water, 58.92 PEG 300, 11.48 sodium salt of Formula (Ia), 2.09 poloxamer 188)): at least 28 days
AUC0-7d [4]: 153 ± 38 µM·h
AUC0-28d [4]: 673 ± 67 µM·h
Time plasma concentrations maintained above the target trough concentration of 20 nM (rat, SC 50 mg/kg, 150 mg/mL solution (w/w %: 26.6 water, 56.97 PEG 300, 13.39 Formula (Ia), 0.57 NaOH, 2.49 poloxamer 188)): at least 98 days
AUC0-98d [5]: 949 ± 114 µM·h
AUC0-112d [5]: 963 ± 102 µM·h
Time plasma concentrations maintained above the target trough concentration of 20 nM (rat, SC 50 mg/kg, 150 mg/mL solution (w/w %: 27.92 water, 58.04 PEG 300, 13.47 Formula (Ia), 1.1 NaOH)): at least 126 days
AUC0-98d (rat, SC 50 mg/kg, 150 mg/mL solution (w/w %: 27.92 water, 58.04 PEG 300, 13.47 Formula (Ia), 1.1 NaOH), mean ± SD, n=3): 801 ± 119 µM·h
Time plasma concentrations maintained above the target trough concentration of 20 nM (rat, SC 50 mg/kg, 300 mg/mL solution (w/w %: 9.8 water, 65.0 PEG 300, 25.2 Formula (Ia))): at least 168 days
AUC0-98d [6]: 531 ± 30 µM·h
AUC0-168d [6]: 730 ± 55 µM·h
Time plasma concentrations maintained above the target trough concentration of 20 nM (rat, SC 50 mg/kg, 300 mg/mL solution (w/w %: 21.97 water, 47.05 PEG 300, 25.21 Formula (Ia), 1.08 NaOH, 4.69 poloxamer 188)): at least 98 days
AUC0-98d [7]: 928 ± 175 µM·h
AUC0-140d [7]: 948 ± 169 µM·h
Time plasma concentrations maintained above the target trough concentration of 20 nM (rat, SC 50 mg/kg, 300 mg/mL solution (w/w %: 23.2 water, 50.0 PEG 300, 25.7 Formula (Ia), 1.1 NaOH)): at least 126 days
AUC0-126d (rat, SC 50 mg/kg, 300 mg/mL solution (w/w %: 23.2 water, 50.0 PEG 300, 25.7 Formula (Ia), 1.1 NaOH), mean ± SD, n=3): 698 ± 13 µM·h
Time plasma concentrations maintained above the target trough concentration of 20 nM (rat, SC 50 mg/kg, 400 mg/mL solution in 10% ethanol, 13% water, 77% PEG 200): at least 84 days
AUC0-84d (rat, SC 50 mg/kg, 400 mg/mL solution in 10% ethanol, 13% water, 77% PEG 200, mean ± SD, n=3): 404 ± 139 µM·h
AUC0-1680h (rat, single SC 50 mg/kg, 300 mg/mL free acid in 85:15 w/w PEG 300:water, mean ± SD, n=3): 412 ± 21 µM·h

Source: patent publication US12594267B2, “Capsid inhibitors for the treatment of HIV” (Gilead Sciences, Inc., priority 2018, dated 2026)
